Data taken from patent US10273313B2, “Multimeric mannosides, a process for preparing the same and their uses as a drug” (CENTRE NATIONAL DE LA RECHERCHE SCIENTIFIQUE, priority 2012, dated 2019).
Values after ≈ are worked out from the molar mass of the structure shown. Where two headings read alike, the source gives them in different places.

Legend:
bladder cell line 5637 = experiment: Anti-adhesives for bacterial bladder cell binding; type: cell-based; settings: ten-fold dilution series
Protocol: The anti-adhesive capacities of the HM-derivatized cyclodextrins 1-4 were tested in vitro on the bladder cell line 5637, in a procedure analogous as previously described (Wellens, A. et al., PLoS ONE 3: e2040 (2008)). The CD conjugates 1-4 were diluted in a ten-fold series. The minimum inhibitory concentrations (MIC) indicate the concentrations of sugars at which we see some inhibition of binding of FimH to the bladder cells, they do however not indicate complete inhibition. MIC values for the CD-conjugates 1-4 followed a similar trend as the inhibitory concentrations recorded in HIA.
The anti-adhesive capacities of the n-heptyl α-D-mannoside-derivatized cyclodextrins 1-4 were tested in vitro on the bladder cell line 5637, in a procedure analogous to as described in (Wellens, A. et al., PLoS ONE 3: e2040 (2008)). The ligands have been diluted 10-fold and this is also the resolution limit of these tests.

[1] = molecular target: T1, monovalent lectin domain of FimH (Escherichia coli, UniProt P08191); type: binding; settings: for Kd / Molar ratio n meas / ΔG° / ΔH° / ΔS°: direct titration; for Kd: read-out: Kd
T1 construct: with the monovalent lectin domain of FimH were measured using isothermal calorimetry (ITC)
T1 sequence (P08191 22-179): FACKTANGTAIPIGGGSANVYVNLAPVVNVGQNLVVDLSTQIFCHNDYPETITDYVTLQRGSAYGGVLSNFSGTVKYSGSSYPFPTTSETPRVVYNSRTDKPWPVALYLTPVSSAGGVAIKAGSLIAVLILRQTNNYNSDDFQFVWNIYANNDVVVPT

[2] = tested on: type-1 piliated clinical E. coli isolate UTI89; experiment: Haemagglutination inhibition assay (HIA), guinea pig erythrocytes; type: cell-based, Escherichia coli; settings: read-out: Minimal inhibitory concentration (MIC) on haemagglutination
Protocol: Haemagglutination is observed as the red blood cells being held in suspension through the formation of a space-filling cross-linked network with the fimbriated bacteria.
The UIT89 clinical isolate was grown statically 37° C. for 48 hours in LB medium and analysed for haemagglutination of guinea pig red blood cells. Both bacteria and red blood cells (RBCs) were washed 3 times in ice-cold PBS (17 mM K/NaH2PO4, 150 mM NaCl). PBS was used for all dilutions. 96-well round-bottom microtiter plates were used for the dilutions. The titer for agglutination was determined in a 2-fold dilution series in PBS of the bacteria in a volume of 25 μL. Well 1 is a negative control without bacteria but 25 μL PBS. 25 μL PBS and 50 μL 5% RBCs were added to a final 100 μL volume. Upon 1 hour at 4° C., the titer was determined as the lowest concentration of bacteria that led to haemagglutination.
A bacterial concentration of twice the determined haemagglutination titer was kept constant in the haemagglutination inhibition assays. First, a 2-fold dilution series of the inhibitory compounds was performed in 25 μL PBS. Instead, in well 1 only 25 μL PBS was added as a negative control. 25 μL of the bacterial solution and 50 μl of 5% red blood cells were added to reach a final volume of 100 μL.

[3] = tested on: AIEC LF82 bacteria adhesion to T84 intestinal epithelial cells; experiment: Adhesion assay on T84 cells, pre-, co- and post-incubation protocols (Example 21.2); type: cell-based, Escherichia coli
Protocol: (§1) E. coli strain LF82 was isolated from a chronic ileal lesion of a patient with Crohn's disease (CD). Bacteria were grown routinely in Luria-Bertani (LB) broth overnight at 37° C. Intestinal epithelial cells T84 derived from colonic adenocarcinoma were maintained in an atmosphere containing 5% CO2 at 37° C. in DMEM/F12 (50/50) medium supplemented with 10% (v/v) heat-inactivated fetal calf serum (FCS), 1% L-glutamine, 100 000 U·l^−1 penicillin, 100 mg·l^−1 streptomycin, 25 μg·l^−1 amphotericin B.
T84 were seeded in 48-well plates at a concentration of 1.5×10^5 cells per well and grown for 48 h. AIEC LF82 bacteria were incubated 1 h with each mannoside prior the cell infection (pre-incubation protocol) or they were added simultaneously onto the cells (co-incubation protocol) in complete medium without antibiotics, containing heat inactivated fetal calf serum (FCS). Heptyl-mannose or compound 2 (example 1) were tested at a dose of 100; 10; 1 or 0.1 μM. D-D-mannose was tested at a dose of 10 000; 1 000; 100 or 10 μM and compound 1 (example 2bis) was tested at a concentration of 500; 100; 10 or 1 μM. Cells were infected with AIEC LF82 bacteria at a multiplicity of infection (MOI) of 10 bacteria per cell for 3 h at 37° C. For the post-incubation protocol, mannosides were incubated with cells for 3 h after bacterial infection. A washing step was realized before this post-incubation to eliminate non-adherent bacteria. Monolayers were washed in phosphate-buffered saline (PBS; pH 7.2) and cells were then lysed with 1% Triton X-100 in deionized water. Samples were diluted and plated onto Luria Bertani agar plates to determine the number of colony-forming units (CFU) recovered from the lysed monolayers. Results were expressed as percentages of residual adhesion, considering adhesion level of AIEC LF82 without mannoside treatment as 100%.

[4] = tested on: AIEC LF82 strain adhesion to T84 intestinal epithelial cells; experiment: Adhesion assay on T84 cells, cells incubated 1 h with mannoside prior infection (Example 21.1); type: cell-based, Escherichia coli
Protocol: as §1
T84 cells were seeded in 48-well tissue culture plates with 1.5×10^5 cells per well and grown for 48 h. Cells were incubated 1 h prior infection with each mannoside at a final concentration of 100; 10; 1 or 0.1 μM in complete medium without antibiotics, containing heat inactivated fetal calf serum (FCS) and were next infected with AIEC LF82 strain at a multiplicity of infection (MOI) of 10 bacteria per cell. After a 3 h incubation period at 37° C., the monolayers were washed in phosphate-buffered saline (PBS; pH 7.2). The epithelial cells were then lysed with 1% Triton X-100 in deionized water. Samples were diluted and plated onto Luria Bertani agar plates to determine the number of cfu recovered from the lysed monolayers.
Results were expressed in percentage of residual adhesion, considering adhesion level of AIEC LF82 without mannoside treatment as 100%.

[5] = tested on: E. coli strain UTI89 in the bladder of C3H/HeN mice; experiment: In vivo inhibition in the murine cystitis model (instillation with UTI89)
Protocol: In vivo inhibition was evaluated by instilling 1-4 together with the UTI89 strain via a catheter in the bladder of C3H/HeN mice. […] A group of ten animals was used for each concentration of antagonists. […] The animals were sacrificed at a 6 h post infection time.
A murine model of urinary tract infection was used to test the ability of the compounds to inhibit the colonization of UTI89 in the bladder [Hung C. S.; Dodson, K. W., Hultgren S. J. Nat. Protoc. 2009, 4, 1230-1243 and Wellens A.; Garofalo C.; Nguyen H.; Van Gerven N.; Slättegård R.; Hernalsteens, J.-P.; Wyns, L.; Oscarson, S.; De Greve H.; Hultgren S. J.; Bouckaert, J. PLoS ONE 2008, 3, e2040]. The solution with high concentration of compounds was added to the resuspension of UTI89 before given to the mice. The eight-week old Female C3H/HeN mice (Harlan, Horst, The Netherlands) were anesthetized and infected via transurethral catheterization of 10^7 CFU UTI89 in solution in PBS, or in PBS with the compound in the mentioned concentration. The mice were sacrificed at 24 hours post infection and the bladders were harvested, homogenized and resuspended in PBS. The serial dilutions were spot on LB medium agar plates. The bacterial load was determined by counting the CFU recovered from the bladder. The animal experiments were approved by the Ethical Committer for Animal Experiments of Vrije Universiteit Brussel and complied with all relevant national legislation and institutional policies. The Mann-Whitney test was applied for the comparison of the data obtained from the untreated group and inhibition group in GraphPad Prism version 5.1 and two tailed P value were shown (GraphPad software).
A limited number of papers described the in vivo efficiency of anti-adhesive mannosides to treat UTIs.

[6] = tested on: AIEC LF82 bacteria in colonic loops of CEABAC10 mice expressing human CEACAM6; experiment: Adhesion assay in colonic loops of CEABAC10 mice; type: in vivo; settings: dose of 0.1 μmol, 4 h incubation
Protocol: E. coli strain LF82 was isolated from a chronic ileal lesion of a patient with Crohn's disease (CD). Bacteria were grown routinely in Luria-Bertani (LB) broth overnight at 37° C.
The transgenic mouse model CEABAC10 expressing the human CEACAM6 protein is available in the UMR Inserm/Université d'Auvergne 1071 led by Professor Arlette Darfeuille-Michaud at Clermont-Ferrand. This model is particularly suitable to reproduce the abnormal colonization by AIEC bacteria through the interaction with CEACAM6 molecules that were observed abnormally expressed in the ileal mucosa of Crohn's disease patients.
Three colonic loops were realized in anesthetized CEABAC10 mice. A volume of 100 μl of a bacterial suspension containing 6×10^6 bacteria/mL with or without inhibitory compound was injected into the loops (here, compound 2, example 1) or heptyl-mannose at a concentration of 100 μM). After an incubation period of 4 h, mice were euthanized and each loop was longitudinally opened, extensively washed and homogenized to numerate adherent LF82 bacteria. Bacterial adhesion was expressed as percentages of residual adhesion (100% corresponds to the adhesion in absence of any compound).

[7] = excluding spiky heat signals (2)

Structure (SMILES): OC[C@H]1O[C@H](OCCCCCCCOCc2cn(C[C@H]3O[C@@H]4O[C@H]5[C@H](O)[C@@H](O)[C@@H](O[C@H]6[C@H](O)[C@@H](O)[C@@H](O[C@H]7[C@H](O)[C@@H](O)[C@@H](O[C@H]8[C@H](O)[C@@H](O)[C@@H](O[C@H]9[C@H](O)[C@@H](O)[C@@H](O[C@H]%10[C@H](O)[C@@H](O)[C@@H](O[C@H]3[C@H](O)[C@H]4O)O[C@@H]%10CO)O[C@@H]9CO)O[C@@H]8CO)O[C@@H]7CO)O[C@@H]6CO)O[C@@H]5CO)nn2)[C@@H](O)[C@@H](O)[C@@H]1O [Compound 1]
- MIC, anti-adhesive potency on bladder cell line 5637 (bladder cell line 5637): >400 µM
- Affinity of FimH for the ligand (in words) ([1]; ITC): micromolar range
- Kd ([1]; data processed to exclude spiky heat signals (2)): 625 nM
- Kd ([1]; data processed to include the whole binding event (1)): 1640 nM
- Molar ratio n meas [1, 7]: 0.36
- ΔG° [1, 7]: -8.4 kcal/mol
- ΔH° [1, 7]: -5.6 kcal/mol
- ΔS° [1, 7]: 9.7 cal/mol/deg
- Molar ratio n meas ([1]; whole binding event (1)): 0.35
- ΔG° ([1]; whole binding event (1)): -7.8 kcal/mol
- ΔH° ([1]; whole binding event (1)): -7.2 kcal/mol
- ΔS° ([1]; whole binding event (1)): 2.2 cal/mol/deg
- MIC ([2]; UTI89 1.2 10^9 CFU/ml): >200 µM
- MIC ([2]; UTI89 1.4 10^8 CFU/ml): 100 µM (≈ 149 µg/mL)
- MIC ([2]; UTI89 7 10^7 CFU/ml): 63 µM (≈ 94 µg/mL)
- Bacteria adherent to intestinal epithelial cells eliminated ([3]; post-incubation, 500 μM): ≤ 40%
- Concentration leading to decreased adhesion levels of at least 50% ([3]; pre-incubation assay): 500 µM
- Concentration reaching around 75% of binding inhibition (25% line) [4]: 500 µM
- Inhibition efficiency at decreased concentration ([5]; 0.1 mM): important drop in the inhibition efficiency
- Reduction of the level of infection ([5]; instillation of 1 mM with UTI89): 10 fold

Structure (SMILES): CCCCCCCO[C@H]1O[C@H](CO)[C@@H](O)[C@H](O)[C@@H]1O [heptyl-mannoside, Heptyl α-D-mannoside, reference compound]
- Bacterial adhesion in colonic loops compared with no inhibitor [6]: did not decrease significantly
